In patent US8822462B2, “Subunit selective NMDA receptor potentiators for the treatment of neurological conditions” (Emory University, priority 2009, dated 2014):

Tests used:
NR1/NR2D [1] = molecular target: T1, NR1/NR2D (Homo sapiens, UniProt O15399); experiment: Single channel currents in excised outside-out patches; type: cell-based; design: expressed in transfected cells
Text: (§1) Values are mean+SEM (n=14-20). […] C is the closed level; broken line is the open level.
Our initial studies varying the compound structure confirm that there are strict requirements for the position and type of substituent on the isoquinoline backbone (see Table 3).
Target sequence in this assay (O15399 28-1336, other chains not shown): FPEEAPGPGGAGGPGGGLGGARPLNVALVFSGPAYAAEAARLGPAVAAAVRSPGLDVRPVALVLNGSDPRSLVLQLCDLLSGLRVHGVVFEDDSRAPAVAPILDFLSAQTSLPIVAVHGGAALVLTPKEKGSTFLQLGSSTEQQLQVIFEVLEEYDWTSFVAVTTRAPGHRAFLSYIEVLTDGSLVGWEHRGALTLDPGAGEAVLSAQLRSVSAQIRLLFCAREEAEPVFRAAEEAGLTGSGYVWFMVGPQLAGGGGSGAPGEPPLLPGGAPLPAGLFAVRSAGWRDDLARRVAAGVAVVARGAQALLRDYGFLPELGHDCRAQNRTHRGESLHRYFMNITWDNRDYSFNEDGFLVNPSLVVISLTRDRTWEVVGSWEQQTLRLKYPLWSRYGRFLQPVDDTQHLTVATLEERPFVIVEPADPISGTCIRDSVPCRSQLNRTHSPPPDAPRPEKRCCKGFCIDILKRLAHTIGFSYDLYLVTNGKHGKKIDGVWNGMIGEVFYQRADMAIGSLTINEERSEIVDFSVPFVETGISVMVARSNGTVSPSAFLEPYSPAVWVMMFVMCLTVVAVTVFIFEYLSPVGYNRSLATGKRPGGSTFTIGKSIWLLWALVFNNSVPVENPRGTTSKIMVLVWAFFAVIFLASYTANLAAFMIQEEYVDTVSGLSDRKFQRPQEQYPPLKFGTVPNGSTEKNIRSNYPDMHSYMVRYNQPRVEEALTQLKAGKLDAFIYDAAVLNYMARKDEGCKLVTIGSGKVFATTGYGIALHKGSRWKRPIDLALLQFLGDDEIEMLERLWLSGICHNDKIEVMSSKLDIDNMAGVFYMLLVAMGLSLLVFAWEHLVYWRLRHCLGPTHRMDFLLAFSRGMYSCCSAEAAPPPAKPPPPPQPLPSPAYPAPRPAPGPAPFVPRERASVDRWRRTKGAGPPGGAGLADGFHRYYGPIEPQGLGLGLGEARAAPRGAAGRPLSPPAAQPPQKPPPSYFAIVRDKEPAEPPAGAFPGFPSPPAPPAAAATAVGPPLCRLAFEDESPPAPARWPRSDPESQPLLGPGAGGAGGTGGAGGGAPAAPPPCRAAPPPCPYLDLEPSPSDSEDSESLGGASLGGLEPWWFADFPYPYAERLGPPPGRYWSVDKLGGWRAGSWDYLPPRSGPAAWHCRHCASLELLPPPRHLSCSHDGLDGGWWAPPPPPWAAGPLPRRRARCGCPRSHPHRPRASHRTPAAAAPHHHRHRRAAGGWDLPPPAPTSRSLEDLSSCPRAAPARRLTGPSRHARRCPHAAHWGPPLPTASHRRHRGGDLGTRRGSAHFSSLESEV

NR1/NR2B = molecular target: T2, NR1/NR2B (Homo sapiens, UniProt Q05586+Q13224); experiment: Two electrode voltage clamp, Xenopus laevis oocytes expressing NR1/NR2B; type: cell-based
T2 construct: expressed in transfected cells; host or cells: Xenopus laevis oocytes
T2 sequence (Q13224 27-1484, species assumed, other chains not shown): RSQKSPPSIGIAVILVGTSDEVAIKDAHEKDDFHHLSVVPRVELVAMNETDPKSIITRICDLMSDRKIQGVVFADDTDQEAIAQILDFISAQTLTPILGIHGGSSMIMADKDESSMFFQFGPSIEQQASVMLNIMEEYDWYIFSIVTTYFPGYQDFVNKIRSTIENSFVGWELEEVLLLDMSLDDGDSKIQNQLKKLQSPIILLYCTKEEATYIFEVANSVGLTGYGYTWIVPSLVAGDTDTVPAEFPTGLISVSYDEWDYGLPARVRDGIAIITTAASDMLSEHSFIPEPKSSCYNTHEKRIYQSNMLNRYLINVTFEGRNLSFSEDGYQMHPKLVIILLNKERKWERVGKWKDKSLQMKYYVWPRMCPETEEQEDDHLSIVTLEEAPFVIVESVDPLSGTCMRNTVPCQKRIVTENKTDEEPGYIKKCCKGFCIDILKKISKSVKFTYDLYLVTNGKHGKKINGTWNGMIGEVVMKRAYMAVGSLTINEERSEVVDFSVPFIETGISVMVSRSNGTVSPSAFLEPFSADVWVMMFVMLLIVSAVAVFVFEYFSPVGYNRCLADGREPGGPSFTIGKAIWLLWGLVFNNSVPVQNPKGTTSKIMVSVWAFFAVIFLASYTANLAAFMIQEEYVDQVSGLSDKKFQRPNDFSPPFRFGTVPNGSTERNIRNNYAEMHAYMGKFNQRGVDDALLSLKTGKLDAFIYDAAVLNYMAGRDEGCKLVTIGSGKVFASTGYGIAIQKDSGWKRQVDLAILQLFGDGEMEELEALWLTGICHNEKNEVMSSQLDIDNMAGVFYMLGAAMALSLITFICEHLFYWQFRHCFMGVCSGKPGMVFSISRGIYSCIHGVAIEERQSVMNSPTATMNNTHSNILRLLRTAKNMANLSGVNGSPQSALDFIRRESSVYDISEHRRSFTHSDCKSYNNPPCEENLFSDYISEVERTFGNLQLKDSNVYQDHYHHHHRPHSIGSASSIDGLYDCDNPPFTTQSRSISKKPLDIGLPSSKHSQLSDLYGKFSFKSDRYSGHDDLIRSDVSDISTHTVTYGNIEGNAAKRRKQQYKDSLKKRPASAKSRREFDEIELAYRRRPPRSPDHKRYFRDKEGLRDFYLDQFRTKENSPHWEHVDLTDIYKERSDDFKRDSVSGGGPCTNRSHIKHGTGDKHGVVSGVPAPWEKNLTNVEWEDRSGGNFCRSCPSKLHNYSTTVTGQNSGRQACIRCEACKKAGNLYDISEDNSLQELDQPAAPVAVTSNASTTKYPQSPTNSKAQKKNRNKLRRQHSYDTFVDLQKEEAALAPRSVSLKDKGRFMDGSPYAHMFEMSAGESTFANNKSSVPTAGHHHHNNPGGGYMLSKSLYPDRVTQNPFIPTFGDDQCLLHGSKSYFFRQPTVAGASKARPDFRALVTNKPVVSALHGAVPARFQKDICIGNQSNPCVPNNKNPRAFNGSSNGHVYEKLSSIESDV
Protocol: (§2) In the table above, potency is expressed as fitted EC50 value to average composite concentration-effect data constructed from current responses recorded under two electrode voltage clamp from Xenopus laevis oocytes expressing either NR1/NR2A, B, C, or D, GluR1, or GluR6. No effect means less than 20% change in response amplitude at 30 μM of drug.

[2] = test system: native NMDA receptor responses in subthalamic neurons; experiment: Patch clamp recording from slices of subthalamic nuclei, pressure-applied NMDA/glycine; type: cell-based
NR1/NR2D [3] = molecular target: NR1/NR2D (Homo sapiens, UniProt O15399+Q05586); experiment: Two electrode voltage clamp, Xenopus laevis oocytes expressing NR1/NR2D; conditions: for Emax: read-out: 2D Max; for activity at 100 µM: read-out: 2D percent effect at the maximum tested concentration, at 100 μM
Sequence of NR1/NR2D (Homo sapiens, UniProt O15399+Q05586) (O15399 28-1336, species assumed, other chains not shown): as the sequence (O15399 28-1336, other chains not shown) above

NR1/NR2D [4] = molecular target: T1, NR1/NR2D; experiment: as above
Target sequence in this assay (O15399 28-1336, species assumed, other chains not shown): as the sequence (O15399 28-1336, other chains not shown) above

[5] = test system: recombinant NMDA receptors; experiment: Voltage and pH dependence of potentiation of recombinant NMDA receptors; type: cell-based
Text: FIG. 2A illustrates the subunit-selectivity with which the compounds of Formula A, including a specific compound herein referred to as DIQ-1180, acts on recombinant NMDA receptors. The structure of DIQ-1180 is shown below.
(§3) The Hill slope at both receptors for all analogues was greater than 1, consistent with a cooperative effect of binding at two sites.

NR1/NR2A = molecular target: T3, NR1/NR2A (Homo sapiens, UniProt Q12879); experiment: Two electrode voltage clamp, Xenopus laevis oocytes expressing NR1/NR2A; type: cell-based; conditions: read-out: 2A percent effect at the maximum tested concentration
T3 construct: expressed in transfected cells; host or cells: Xenopus laevis oocytes
T3 sequence (Q12879 23-1464, species assumed, other chains not shown): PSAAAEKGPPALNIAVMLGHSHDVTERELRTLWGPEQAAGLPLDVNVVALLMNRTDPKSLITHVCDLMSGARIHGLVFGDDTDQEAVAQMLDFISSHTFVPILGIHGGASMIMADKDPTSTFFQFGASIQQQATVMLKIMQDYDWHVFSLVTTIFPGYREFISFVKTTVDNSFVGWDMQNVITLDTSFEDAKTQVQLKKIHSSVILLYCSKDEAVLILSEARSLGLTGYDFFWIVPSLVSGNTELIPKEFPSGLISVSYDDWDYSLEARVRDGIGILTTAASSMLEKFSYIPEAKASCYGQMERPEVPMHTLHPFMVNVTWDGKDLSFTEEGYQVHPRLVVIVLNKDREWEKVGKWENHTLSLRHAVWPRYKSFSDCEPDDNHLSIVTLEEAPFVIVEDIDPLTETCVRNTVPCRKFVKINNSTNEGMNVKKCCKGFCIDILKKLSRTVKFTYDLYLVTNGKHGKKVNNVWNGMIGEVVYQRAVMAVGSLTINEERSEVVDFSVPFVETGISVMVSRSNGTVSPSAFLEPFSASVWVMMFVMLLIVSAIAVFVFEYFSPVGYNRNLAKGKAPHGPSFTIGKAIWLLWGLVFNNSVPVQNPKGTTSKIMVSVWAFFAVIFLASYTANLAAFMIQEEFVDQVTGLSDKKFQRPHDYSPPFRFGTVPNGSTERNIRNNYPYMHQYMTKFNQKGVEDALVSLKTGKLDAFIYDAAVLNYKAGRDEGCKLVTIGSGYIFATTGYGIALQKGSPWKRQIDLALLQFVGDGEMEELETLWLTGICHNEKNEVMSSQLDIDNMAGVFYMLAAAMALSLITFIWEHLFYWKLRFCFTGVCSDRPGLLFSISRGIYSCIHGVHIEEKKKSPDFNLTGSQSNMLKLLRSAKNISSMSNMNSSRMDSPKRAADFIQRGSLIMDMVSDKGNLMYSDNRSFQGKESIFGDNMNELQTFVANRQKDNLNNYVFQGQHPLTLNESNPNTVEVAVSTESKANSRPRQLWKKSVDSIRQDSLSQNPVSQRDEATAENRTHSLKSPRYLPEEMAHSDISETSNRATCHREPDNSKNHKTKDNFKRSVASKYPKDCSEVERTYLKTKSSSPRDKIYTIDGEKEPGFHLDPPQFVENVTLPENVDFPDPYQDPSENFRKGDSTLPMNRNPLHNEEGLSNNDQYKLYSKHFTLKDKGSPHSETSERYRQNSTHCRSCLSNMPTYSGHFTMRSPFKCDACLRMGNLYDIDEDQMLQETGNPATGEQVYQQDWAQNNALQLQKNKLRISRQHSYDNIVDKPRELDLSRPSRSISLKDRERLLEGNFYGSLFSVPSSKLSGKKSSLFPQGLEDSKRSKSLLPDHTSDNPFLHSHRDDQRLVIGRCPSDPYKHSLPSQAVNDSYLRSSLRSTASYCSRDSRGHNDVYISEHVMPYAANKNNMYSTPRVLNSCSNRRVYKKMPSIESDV
Protocol: as §2

NR1/NR2C [6] = molecular target: T4, NR1/NR2C (Homo sapiens, UniProt Q05586+Q14957); experiment: Two electrode voltage clamp, Xenopus laevis oocytes expressing NR1/NR2C; type: cell-based; conditions: for IC50: fitted to composite concentration-effect data, read-out: 2C IC50; for Emax: maximal effect of fit, read-out: 2C Max; for activity at 100 µM: read-out: 2C percent effect at the maximum tested concentration
T4 construct: expressed in transfected cells; host or cells: Xenopus laevis oocytes
Text: as §1, §3, §2

NR1/NR2C [7] = molecular target: T5, NR1/NR2C (Homo sapiens, UniProt Q14957); experiment: as above; type: cell-based
T5 construct: expressed in transfected cells; host or cells: Xenopus laevis oocytes
Text: as §1, §3, §2

[8] = read-out: 2B percent effect at the maximum tested concentration

Compound	activity at 100 µM (NR1/NR2B; [8]) [%]	activity at 100 µM (NR1/NR2A) [%]	activity at 100 µM (NR1/NR2D [3]) [%]	activity at 100 µM (NR1/NR2C [6]) [%]	IC50 (NR1/NR2C [6]) [µM]	Emax (NR1/NR2C [6]) [%]	also measured
COc1ccc(OCC2c3cc(OC)c(OC)cc3CCN2C(=O)c2ccccc2)cc1 (stereo not shown) [compound 1180]	67	81			12	145	total open probability (nPo) (NR1/NR2D [1]; glutamate/glycine-activated unitary currents, increased from 0.083 without compound): 0.207; opening frequency of recombinant NR1/NR2D single channel currents (NR1/NR2D [1]; maximally effective glutamate/glycine, FIG. 2B): increased the opening frequency; opening frequency (NR1/NR2D [1]; reversed by washout): 178 % of control; current response to pressure-applied NMDA/glycine ([2]; 30 μM, listed as DIQ-1180): potentiated; EC50 (NR1/NR2D [3]): 13 µM; IC50 (NR1/NR2D [3]): 11 µM; Emax (NR1/NR2D [3]): 156%; maximal potentiation at NR2D-containing receptors (NR1/NR2D [4]; Example 1): 162%; voltage dependence of potentiating actions ([5]; n=7): voltage-independent; pH dependence of potentiating actions ([5]; n=10-16): pH-independent; EC50 (NR1/NR2C [6]; Example 1, read-out: EC50 value for potentiation of NR2C-containing receptors): 11 µM; maximal potentiation at NR2C-containing receptors (NR1/NR2C [7]; Example 1): 181%
CSC1=NCCN1C(=O)c1ccc2ccccc2c1 [compound 1397]							2D percent effect at the maximum tested concentration (NR1/NR2D [4]; at 100 μM): 87% at 100 μM; 2C percent effect at the maximum tested concentration (NR1/NR2C [7]; at 100 μM): 98% at 100 μM
NC(CCCP(=O)(O)O)C(=O)O (racemic) [DL-APV, reference compound]							current response to pressure-applied NMDA/glycine ([2]; 100 μM): blocked
Cc1csc(C(=O)O)c1NC(=O)c1ccc(C(C)(C)C)cc1 [compound 1428]	70	105	72	80			
COc1ccc(OCC2c3cc(OC)c(OC)cc3CCN2C(=O)c2cccc(Br)c2)cc1 (stereo not shown) [compound 1391]	74	119			1	195	IC50 (NR1/NR2D [3]): 2 µM; Emax (NR1/NR2D [3]): 188%
CC(C)(C)c1ccc(CSc2nc(N)cc(O)n2)cc1 [compound 1563]		91			39	424	IC50 (NR1/NR2B; fitted to composite concentration-effect data, Max 0 = inhibition, read-out: 2B IC50): 24 µM; IC50 (NR1/NR2D [3]): 68 µM; Emax (NR1/NR2D [3]): 614%
COc1ccc(OCC2c3cc(OC)c(OC)cc3CCN2C(=O)c2ccc([N+](=O)[O-])cc2)cc1 (stereo not shown) [compound 1370]	78	77	95	83			
CCc1cc(C(=O)O)c(NC(=O)c2ccc(C(C)(C)C)cc2)s1 [compound 1421]	100	106			41	159	IC50 (NR1/NR2D [3]): 35 µM; Emax (NR1/NR2D [3]): 152%
COc1ccc(OCC2c3cc(OC)c(OC)cc3CCN2C(=O)c2cccc(O)c2)cc1 (stereo not shown) [1180-3]	78	126	79	81			
Cc1ccc(CSc2nccn2C(=O)c2ccc(C(C)(C)C)cc2)cc1 [compound 1403]	94	88	86	104			
CC(C)(C)c1ccc(C(=O)NC2=C(C(=O)O)C3CCCCCC3S2)cc1 (stereo not shown) [compound 1482]	116	97			19	127	IC50 (NR1/NR2D [3]): 16 µM; Emax (NR1/NR2D [3]): 170%
COc1ccc(OCC2c3cc(OC)c(OC)cc3CCN2C(=O)c2cccc(Cl)c2)cc1 (stereo not shown) [compound 1390]	82	115			3	215	IC50 (NR1/NR2D [3]): 3 µM; Emax (NR1/NR2D [3]): 205%
COc1ccc(OCC2c3cc(OC)c(OC)cc3CCN2C(=O)c2cccc(Cl)c2Cl)cc1 (stereo not shown) [1180-12]					2	133	activity at 30 µM (NR1/NR2B; at 30 μM, read-out: 2B percent effect at the maximum tested concentration): 90%; activity at 30 µM (NR1/NR2D [3]; read-out: 2D percent effect at the maximum tested concentration, at 30 μM): 109%; activity at 30 µM (NR1/NR2A; at 30 μM): 97%
CCc1ccc(OCC2c3cc(OC)c(OC)cc3CCN2C(=O)c2ccccc2)cc1 (stereo not shown) [compound 1366]	97	98	108		3	121	
COc1ccc(OCC2c3ccc(OC)cc3CCN2C(=O)c2cccc(Br)c2)cc1 (stereo not shown) [1180-27]	77	107			1	192	IC50 (NR1/NR2D [3]): 1 µM; Emax (NR1/NR2D [3]): 168%
COc1ccc(OCC2c3cc(OC)c(OC)cc3CCN2C(=O)c2ccc(C)cc2)cc1 (stereo not shown) [compound 1371]	70	73	100	89			

The next lines start with results.

activity at 100 µM (NR1/NR2B; [8]) [%]	activity at 100 µM (NR1/NR2A) [%]	activity at 100 µM (NR1/NR2D [3]) [%]	activity at 100 µM (NR1/NR2C [6]) [%]	Compound	IC50 (NR1/NR2C [6]) [µM]	Emax (NR1/NR2C [6]) [%]	also measured
68	91	111	102	COC(=O)c1ccc(OCC2c3cc(OC)c(OC)cc3CCN2C(=O)c2cccc(Cl)c2)cc1 (stereo not shown) [compound 1444]			
94	92	77	95	Cc1ccc(C(=O)Nc2sc(C)cc2C(=O)O)cc1 [compound 1395]			
83	98	80	82	CC(C)c1ccc(C(=O)Nc2sccc2C(=O)O)cc1 [compound 1488]			
90	123	82	71	COc1ccc(NC(O)C2CN(C(C)C)C(=O)c3cc(OC)c(OC)cc32)c(OC)c1 (stereo not shown) [compound 1440]			
90		83	95	COc1ccc(OCC2c3cc(OC)c(OC)cc3CCN2Cc2ccccc2)cc1 (stereo not shown) [1180-17]			activity at 20 µM (NR1/NR2A; at 20 μM): 50%
87	105	86	97	Cc1cc(NC(=O)c2ccc(C(C)(C)C)cc2)no1 [compound 1401]			
80	104	93	103	CSC1=NCCN1C(=O)c1ccc2ccccc2c1 [compound 1402]			
85	114	87	77	COc1ccc(NC(O)C2CN(C)C(=O)c3cc(OC)c(OC)cc32)c(OC)c1 (stereo not shown) [compound 1438]			
69	105	89	100	COc1ccc(OCC2c3cc(OC)c(OC)cc3CCN2C(=O)c2ccco2)cc1 (stereo not shown) [1180-4]			
